The experiment has as its target T1, Enoyl-ACP reductase (Plasmodium falciparum, UniProt Q9BJJ9).
T1 sequence (Q9BJJ9 whole entry): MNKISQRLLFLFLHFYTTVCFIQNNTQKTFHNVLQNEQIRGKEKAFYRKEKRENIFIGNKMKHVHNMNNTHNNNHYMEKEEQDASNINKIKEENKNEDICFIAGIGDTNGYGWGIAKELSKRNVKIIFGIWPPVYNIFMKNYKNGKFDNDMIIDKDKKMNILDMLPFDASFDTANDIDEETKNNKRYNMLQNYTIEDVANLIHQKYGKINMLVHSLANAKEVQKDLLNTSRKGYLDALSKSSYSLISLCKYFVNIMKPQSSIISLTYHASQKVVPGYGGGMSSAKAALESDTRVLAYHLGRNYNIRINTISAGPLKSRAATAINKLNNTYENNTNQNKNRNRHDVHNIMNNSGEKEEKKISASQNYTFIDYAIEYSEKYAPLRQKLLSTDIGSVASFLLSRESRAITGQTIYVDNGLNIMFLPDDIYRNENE
Description: PfENR Enzymatic Inhibition Assay. As to conditions: pH 7.9; 25 °C. How it is done: PfENR inhibition assays were carried out on a Cary 100 Bio Spectrophotometer or POLARstar Optima by monitoring oxidation of NADH at 340 nm. The IC50 was determined from a dose-response plot of enzyme fractional activity as a function of inhibitor concentration.
One may read the IC50 as the concentration needed to halve the response being measured. In turn, `O=C(O)c1ccc(Oc2ccc(Cl)cc2Cl)c(O)c1` [4-(2,4-dichlorophenoxy)-3-hydroxybenzoic acid] gave an IC50 of over 100 µM.

For `Oc1cc(Cl)ccc1Oc1ccc(Cl)cc1Cl`, the concentration for half-maximal inhibition (IC50) is 0.073 µM.

In the case of `Oc1cc(-c2nn[nH]n2)ccc1Oc1ccc(Cl)cc1Cl` [2-(2,4-dichlorophenoxy)-5-(2H-1,2,3,4-tetrazol-5-yl)phenol], the IC50 is over 100 µM.
